Results as given in ChEMBL document CHEMBL1201862, “PubChem BioAssay data set” (2004).
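Test compounds were applied to cells in 96-well plates for 48 hours at 5 doses. Abbreviation: GI50, concentration required for 50% inhibition of growth.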 The source made the active and inactive calls. Rule as the data show it: active = GI50 up to about 1.1 µM and inactive = higher.

Legend:
Test in all cases: DTP human tumour cell line panel, 48 h
MDA-MB-231 = tested on: MDA-MB-231
U-251 = tested on: U-251
OVCAR-5 = tested on: OVCAR-5
SK-MEL-28 = tested on: SK-MEL-28
HCC 2998 = tested on: HCC 2998
NCI-H23 = tested on: NCI-H23
BT-549 = tested on: BT-549
SN12C = tested on: SN12C
MCF7 = tested on: MCF7
HCT-116 = tested on: HCT-116
MOLT-4 = tested on: MOLT-4
A549 = tested on: A549
ACHN = tested on: ACHN
T47D = tested on: T47D
NCI/ADR-RES = tested on: NCI/ADR-RES
UACC-257 = tested on: UACC-257
NCI-H522 = tested on: NCI-H522
EKVX = tested on: EKVX
MDA-N = tested on: MDA-N

| SMILES | GI50 (MDA-MB-231) | GI50 (U-251) | GI50 (OVCAR-5) | GI50 (SK-MEL-28) | GI50 (HCC 2998) | GI50 (NCI-H23) | GI50 (BT-549) | GI50 (SN12C) | GI50 (MCF7) | GI50 (HCT-116) | GI50 (MOLT-4) | GI50 (A549) | GI50 (ACHN) | GI50 (T47D) | GI50 (NCI/ADR-RES) | GI50 (UACC-257) | GI50 (NCI-H522) | GI50 (EKVX) | GI50 (MDA-N) |
| --- | --- | --- | --- | --- | --- | --- | --- | --- | --- | --- | --- | --- | --- | --- | --- | --- | --- | --- | --- |
| O=C1C(Cl)=C(N2CCN(CCOCCO)CC2)C(=O)c2ncccc21 | > 10 µM (inactive) | > 10 µM (inactive) | > 10 µM (inactive) | > 10 µM (inactive) | > 10 µM (inactive) | > 10 µM (inactive) | > 10 µM (inactive) | > 10 µM (inactive) | > 10 µM (inactive) | 5.07 µM (inactive) | > 10 µM (inactive) | > 10 µM (inactive) | > 10 µM (inactive) | 2.23 µM (inactive) | > 10 µM (inactive) | > 10 µM (inactive) | 2.56 µM (inactive) | > 10 µM (inactive) |  |
| COc1nc(Cl)c(Cl)c(Cl)n1.COc1nc(Cl)nc(Cl)c1Cl | 17.2 µM (inactive) | 3.78 µM (inactive) | 30.9 µM (inactive) | 14 µM (inactive) | 0.252 µM (active) | 6.71 µM (inactive) | 9.93 µM (inactive) | 23.3 µM (inactive) | 2.62 µM (inactive) | 8.2 µM (inactive) | 0.603 µM (active) | 18.1 µM (inactive) | 7.59 µM (inactive) | 2.29 µM (inactive) | 7.87 µM (inactive) | 3.83 µM (inactive) | 0.675 µM (active) | 0.381 µM (active) |  |
| O=c1[nH]nc(-c2ccccc2)n1/N=C/c1c[nH]c2ccccc12 | > 100 µM (inactive) | > 100 µM (inactive) | > 100 µM (inactive) | > 100 µM (inactive) | > 100 µM (inactive) | > 100 µM (inactive) |  | > 100 µM (inactive) | > 100 µM (inactive) | 42.9 µM (inactive) | > 100 µM (inactive) | > 100 µM (inactive) | > 100 µM (inactive) | > 100 µM (inactive) | > 100 µM (inactive) | > 100 µM (inactive) | > 100 µM (inactive) | > 100 µM (inactive) | > 100 µM (inactive) |
| CO[C@]12C[C@H](CNC(=O)c3ccc[nH]3)O[C@H]1NC(=O)N2 | > 100 µM (inactive) | > 100 µM (inactive) | > 100 µM (inactive) |  |  | > 100 µM (inactive) | > 100 µM (inactive) | > 100 µM (inactive) | > 100 µM (inactive) | > 100 µM (inactive) |  | > 100 µM (inactive) | > 100 µM (inactive) | > 100 µM (inactive) | > 100 µM (inactive) | > 100 µM (inactive) | > 100 µM (inactive) | > 100 µM (inactive) |  |
| CC(C)NC(=O)OCc1c(COC(=O)NC(C)C)c(-c2ccc[n+](COC(=O)C3CC3)c2)n2c1CCC2 | > 100 µM (inactive) | 56 µM (inactive) | > 100 µM (inactive) | > 100 µM (inactive) | > 100 µM (inactive) | 29.6 µM (inactive) | 76.6 µM (inactive) | 48.1 µM (inactive) | 49.5 µM (inactive) | 60.5 µM (inactive) | 14.9 µM (inactive) | 89.1 µM (inactive) | 20 µM (inactive) | 86.7 µM (inactive) | 47.1 µM (inactive) | > 100 µM (inactive) | 27.1 µM (inactive) | > 100 µM (inactive) |  |
| CC1CN=C(N(Cc2ccccc2)C(=O)Nc2ccc(Cl)c(Cl)c2)S1 (stereo not given) | 27.2 µM (inactive) | 32.4 µM (inactive) | 29.2 µM (inactive) | 26.1 µM (inactive) | > 10 µM (inactive) | 43.1 µM (inactive) |  | 17.2 µM (inactive) | 52.1 µM (inactive) | 27.7 µM (inactive) | > 10 µM (inactive) | 36.9 µM (inactive) | 12.6 µM (inactive) | 16.9 µM (inactive) | 21.4 µM (inactive) | 32.5 µM (inactive) |  | 53.3 µM (inactive) | 29.6 µM (inactive) |
| OC(C/C(=N\N1CCCCC1)c1cccs1)(C(F)(F)F)C(F)(F)F | > 10 µM (inactive) | > 10 µM (inactive) |  | > 10 µM (inactive) | > 10 µM (inactive) | > 10 µM (inactive) |  | > 10 µM (inactive) | > 10 µM (inactive) | > 10 µM (inactive) | > 10 µM (inactive) | > 10 µM (inactive) | > 10 µM (inactive) | > 10 µM (inactive) | > 10 µM (inactive) | > 10 µM (inactive) | > 10 µM (inactive) | > 10 µM (inactive) | > 10 µM (inactive) |
| COc1ccc2c(=O)c3ccoc3[nH]c2c1 | > 100 µM (inactive) | > 100 µM (inactive) |  | > 100 µM (inactive) | > 100 µM (inactive) | > 100 µM (inactive) | > 100 µM (inactive) |  | > 100 µM (inactive) | > 100 µM (inactive) | > 100 µM (inactive) |  | > 100 µM (inactive) | > 100 µM (inactive) | > 100 µM (inactive) | > 100 µM (inactive) |  | > 100 µM (inactive) |  |
